Source: patent US8722690B2, “Mesoionic pesticides” (E I du Pont de Nemours and Company, priority 2009, dated 2014)

Assays:
Assay type in all cases: in vivo
[1] = system: green peach aphid (Myzus persicae); experiment: whole plant or invertebrate; conditions: 144 h, 6 days, radish plant; for mortality at 50 ppm: sprayed at 50 ppm
Text: For evaluating control of green peach aphid (Myzus persicae) through contact and/or systemic means, the test unit consisted of a small open container with a 12-15-day-old radish plant inside. This was pre-infested by placing on a leaf of the test plant 30-40 aphids on a piece of leaf excised from a culture plant (cut-leaf method). The aphids moved onto the test plant as the leaf piece desiccated. After pre-infestation, the soil of the test unit was covered with a layer of sand.
Test compounds were formulated and sprayed at 50 ppm and/or 10 ppm as described for Test A. The applications were replicated three times. After spraying of the formulated test compound, each test unit was allowed to dry for 1 h and then a black, screened cap was placed on top. The test units were held for 6 days in a growth chamber at 19-21° C. and 50-70% relative humidity. Each test unit was then visually assessed for insect mortality.

[2] = system: cotton melon aphid (Aphis gossypii); experiment: Test D: control of cotton melon aphid on cotton plant, contact and/or systemic; conditions: for mortality at 50 ppm: sprayed at 50 ppm
Text: For evaluating control of cotton melon aphid (Aphis gossypii) through contact and/or systemic means, the test unit consisted of a small open container with a 6-7-day-old cotton plant inside. This was pre-infested with 30-40 insects on a piece of leaf according to the cut-leaf method described for Test C, and the soil of the test unit was covered with a layer of sand.
Test compounds were formulated and sprayed at 50 ppm and/or 10 ppm as described for Test C. The applications were replicated three times. After spraying, the test units were maintained in a growth chamber and then visually rated as described for Test C.

[3] = system: corn planthopper (Peregrinus maidis); experiment: whole plant or invertebrate; conditions: 144 h, 6 days, maize plant, very good to excellent levels of control efficacy; for mortality at 10 ppm: sprayed at 10 ppm; for mortality at 50 ppm: sprayed at 50 ppm
Method: For evaluating control of corn planthopper (Peregrinus maidis) through contact and/or systemic means, the test unit consisted of a small open container with a 3-4-day-old maize plant (spike) inside. White sand was added to the top of the soil prior to application. Test compounds were formulated and sprayed at 50 ppm and/or 10 ppm, and replicated three times as described for Test A. After spraying, the test units were allowed to dry for 1 h before they were post-infested with ˜15-20 nymphs (18 to 21 day old) by sprinkling them onto the sand with a salt shaker. A black, screened cap was placed on the top of each test unit, and the test units were held for 6 days in a growth chamber at 22-24° C. and 50-70% relative humidity. Each test unit was then visually assessed for insect mortality.

[4] = system: potato leafhopper (Empoasca fabae); experiment: whole plant or invertebrate; conditions: 144 h, 6 days, Soleil bean plant, very good to excellent levels of control efficacy; for mortality at 10 ppm: sprayed at 10 ppm; for mortality at 50 ppm: sprayed at 50 ppm
Method: For evaluating control of potato leafhopper (Empoasca fabae) through contact and/or systemic means, the test unit consisted of a small open container with a 5-6-day-old Soleil bean plant (primary leaves emerged) inside. White sand was added to the top of the soil and one of the primary leaves was excised prior to application.
Test compounds were formulated and sprayed at 50 ppm and/or 10 ppm, and the tests were replicated three times as described for Test A. After spraying, the test units were allowed to dry for 1 h before they were post-infested with 5 potato leafhoppers (18-21-day-old adults). A black, screened cap was placed on the top of each test unit, and the test units were held for 6 days in a growth chamber at 24° C. and 70% relative humidity. Each test unit was then visually assessed for insect mortality.

CCn1ccn2c(=O)c(-c3ccccc3)c([O-])[n+](Cc3cnc(Cl)s3)c12 [Compound 333]
≥ 80%: mortality at 10 ppm ([1]; sprayed at 10 ppm) | mortality at 50 ppm [1] | mortality at 50 ppm [2] | mortality at 10 ppm [3] | mortality at 50 ppm [3] | mortality at 10 ppm [4] | mortality at 50 ppm [4]

CCn1ccn2c(=O)c(-c3cccc(C(F)(F)F)c3)c([O-])[n+](Cc3cnc(Cl)s3)c12 [Compound 340]
≥ 80%: mortality at 50 ppm [1] | mortality at 10 ppm ([2]; sprayed at 10 ppm) | mortality at 50 ppm [2] | mortality at 10 ppm [3] | mortality at 50 ppm [3] | mortality at 50 ppm [4]

O=c1c(-c2ccccc2)c([O-])[n+](Cc2cnc(Cl)s2)c2c3ccsc3ccn12 [Compound 356]
≥ 80%: mortality at 50 ppm [4]

O=c1c(-c2ccccc2F)c([O-])[n+](Cc2cnc(Cl)s2)c2c3ccsc3ccn12 [Compound 357]
≥ 80%: mortality at 50 ppm [1] | mortality at 10 ppm [4] | mortality at 50 ppm [4]
